Experimental data taken from patent publication US20250134907A1, “FUSED DIAZEPINES AS AGONISTS OF THE INSULIN-LIKE 3 (INSL3) PEPTIDE RECEPTOR RXFP2 AND METHODS OF USE THEREOF” (The United States of America,as represented by the …, priority 2022, published 2025).
pEC50: −log10 of the molar value.

Legend:
[1] = target: T1, RXFP2 (Homo sapiens, UniProt Q8WXD0); test: HTRF cAMP assay in HEK293T cells stably expressing RXFP2 (HEK-RXFP2); type: cell-based; details: for % EFF vs. 100 nM INSL3 (c): normalized to 100 nM INSL3 cAMP response
T1 construct: expressed in transfected cells
Method in brief: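 HEK-RXFP2 cells in serum-free DMEM were treated with compound up to 25 μM for 1 h at 37°C, and cAMP was read by HTRF immunoassay. Condition (a): 20,000 cells/well, 200 μM IBMX, normalized to 1 nM INSL3. Condition (b): 10,000 cells/well, 1 nM INSL3. Condition (c): 7,500 cells/well, no IBMX, 100 nM INSL3.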

[2] = system: primary HCO cells; test: OsteoImage mineralization assay in primary HCO cells; type: cell-based, human; details: 14 days
Method: The biological activity of the RXFP2 agonists was tested in primary HCO cells (ScienCell Research Laboratories, San Diego, CA) by measuring their ability to induce osteoblast mineralization. A fluorescent-based assay (OSTEOIMAGE™ Mineralization Assay, Lonza, Switzerland) was used that measures hydroxyapatite, which is the main mineral component of bone. For this assay, HCO cells were seeded in 0.1% gelatin-coated 96 well black-walled flat-bottom clear plates at 7,000 cells/well in 100 μL/well of growth medium (DMEM, 10% FBS, 1× Pen/Strep) and allowed to attach overnight at 37° C. and 5% CO2. The next day, growth medium was changed to 100 μL/well of mineralization medium (growth medium+10 mM β-glycerophosphate, 50 μg/ml ascorbic acid, 10 nM dexamethasone), along with the respective treatments. Cells were treated with 1 μL/well of compound (1, 3, or 5 μM) or vehicle (serum-free DMEM, 0.05% DMSO). Medium and treatments were replaced every 2-3 days and cells were incubated at 37° C. and 5% CO2 for 14 days. Hydroxyapatite deposits were evaluated using the OSTEOIMAGE™ Mineralization Assay (Lonza, Switzerland). At treatment day 14, cells were rested 30 minutes at room temperature for equilibration, washed with 200 μL/well PBS, and fixed in 100 μL/well 4% formaldehyde for 15 minutes. Cells were washed once with 200 μL/well assay wash buffer and 100 μL/well of assay staining reagent was added as per manufacturer's protocol. Cells were incubated at room temperature for 30 minutes, protected from light. After staining, cells were washed 3 times with 200 μL/well wash buffer and wells were filled with a final 200 μL/well wash buffer. Mineralization was quantified using a CLARIOstar plate reader (BMG Labtech, Germany) and representative images of the hydroxyapatite bone-like nodules were captured using a fluorescence microscope (Nikon Eclipse TS100 attached to an Olympus DP70 camera). […] Mineralization activity induced by compounds was normalized to DMSO vehicle as 100% mineralization. […]

[3] = condition (c): 7,500 cells/well, IBMX omitted

T1 sequence (Q8WXD0 whole entry): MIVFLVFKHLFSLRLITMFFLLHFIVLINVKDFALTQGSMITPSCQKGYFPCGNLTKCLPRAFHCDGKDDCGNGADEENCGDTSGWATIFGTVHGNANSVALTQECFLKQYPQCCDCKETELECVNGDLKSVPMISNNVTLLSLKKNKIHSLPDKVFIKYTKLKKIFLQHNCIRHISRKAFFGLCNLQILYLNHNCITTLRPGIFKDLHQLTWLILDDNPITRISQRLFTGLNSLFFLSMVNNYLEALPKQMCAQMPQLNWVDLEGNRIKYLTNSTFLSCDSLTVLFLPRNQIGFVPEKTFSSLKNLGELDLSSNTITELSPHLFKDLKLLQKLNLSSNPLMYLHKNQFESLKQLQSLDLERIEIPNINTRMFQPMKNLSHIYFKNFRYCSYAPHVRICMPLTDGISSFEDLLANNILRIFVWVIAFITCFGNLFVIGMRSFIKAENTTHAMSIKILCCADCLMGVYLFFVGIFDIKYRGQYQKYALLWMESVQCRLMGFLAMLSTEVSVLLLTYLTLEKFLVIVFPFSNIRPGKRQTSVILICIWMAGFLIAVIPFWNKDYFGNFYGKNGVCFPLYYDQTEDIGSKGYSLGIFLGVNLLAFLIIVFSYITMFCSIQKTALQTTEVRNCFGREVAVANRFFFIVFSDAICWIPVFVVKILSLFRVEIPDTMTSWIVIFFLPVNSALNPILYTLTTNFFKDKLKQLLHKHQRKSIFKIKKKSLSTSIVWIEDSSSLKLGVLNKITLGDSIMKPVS

| activity in the HTRF cAMP screen ([1]; compared with Examples 187, 158, 153) | pEC50 ([1]; condition (b): 10,000 cells/well, IBMX 200 μM) | % EFF vs. 1 nM INSL3 (b) ([1]; condition (b): 10,000 cells/well, IBMX 200 μM, normalized to 1 nM INSL3 cAMP response) | pEC50 [1, 3] | % EFF vs. 100 nM INSL3 (c) [1, 3] | Compound | mineralization (hydroxyapatite) vs. DMSO vehicle ([2]; 1, 3, or 5 μM) | mineralization (hydroxyapatite) vs. DMSO vehicle ([2]; 5 μM) |
| --- | --- | --- | --- | --- | --- | --- | --- |
| weaker activity | 7.63 to 7.74 | 113.66-166.88% | 7.13 to 7.34 | 38.35-49.8% | O=C1Nc2ccc(-c3cccc(C(F)(F)F)c3)cc2C(=O)N2CCN(C(=O)COc3ccc(OC(F)(F)F)cc3Br)C[C@@H]12 [Example 123, (S)-2-(2-(2-bromo-4-(trifluoromethoxy)phenoxy)acetyl)-8-(3-(trifluoromethyl)phenyl)-1,3,4,12a-tetrahydrobenzo[e]pyrazino[1,2-a][1,4]diazepine-6,12 (2H, 11H)-dione] | does not seem to increase mineralization | – |
| – | – | – | 5.80 to 6.78 | 48.99-81.93% | O=C1Nc2ccc(-c3cc(C(F)(F)F)cc(C(F)(F)F)c3)cc2C(=O)N2CCN(C(=O)COc3ccc(OC(F)(F)F)cc3Br)C[C@@H]12 [Example 158, (S)-8-(3,5-Bis(trifluoromethyl)phenyl)-2-(2-(2-bromo-4-(trifluoromethoxy)phenoxy)acetyl)-1,3,4,12a-tetrahydrobenzo[e]pyrazino[1,2-a][1,4]diazepine-6,12 (2H, 11H)-dione] | – | significant increase |

| Compound | activity in the HTRF cAMP screen ([1]; compared with Examples 187, 158, 153) | pEC50 ([1]; condition (b): 10,000 cells/well, IBMX 200 μM) | % EFF vs. 1 nM INSL3 (b) ([1]; condition (b): 10,000 cells/well, IBMX 200 μM, normalized to 1 nM INSL3 cAMP response) | pEC50 [1, 3] | % EFF vs. 100 nM INSL3 (c) [1, 3] | mineralization (hydroxyapatite) vs. DMSO vehicle ([2]; 1, 3, or 5 μM) | mineralization (hydroxyapatite) vs. DMSO vehicle ([2]; 5 μM) |
| --- | --- | --- | --- | --- | --- | --- | --- |
| O=C1Nc2ccc(-c3cc(C(F)(F)F)cc(C(F)(F)F)c3)cc2C(=O)N2CCN(C(=O)COc3ccc(OC(F)(F)F)cc3I)C[C@@H]12 [Example 187, (S)-8-(3,5-bis(trifluoromethyl)phenyl)-2-(2-(2-iodo-4-(trifluoromethoxy)phenoxy)acetyl)-1,3,4,12a-tetrahydrobenzo[e]pyrazino[1,2-a][1,4]diazepine-6,12 (2H, 11H)-dione] | – | – | – | 6.25 to 6.89 | 87.28-147.65% | – | significant increase |
